Test results from patent EP1333824B1, “TREATMENT OF SEXUAL DYSFUNCTION WITH BOMBESIN RECEPTOR ANTAGONISTS” (Warner-Lambert Company LLC, priority 2000, dated 2002).

Key:
Sprague Dawley male rats = test: Sexual behaviour of normal (sexually vigorous) male rats; format: in vivo, rat; settings: Compound (1) 15mg/kg or Fluoxetine 20mg/kg i.p. 1h before tests, vs vehicle
Procedure: Sprague Dawley male rats (Charles River, UK) were kept, 4 rats per cage, in a reversed lighting regime (12:12 hours, lights off at 5.00 h), with free access to food and water. The rats were pre-selected by being presented with a receptive female at 4 days intervals, i.e. every third day (having 2 clear days between presentations) until completing 6-7 days of baseline determination. The animals showing consistently vigorous behaviour (ejaculatory latencies <300s) were chosen for further experiments (n=24). Animals were randomised into three groups. All animals received all three treatments following a latin-square design. Treatments were administered once a week, with a baseline test in between treatments (4 days intervals between baseline and test day). […] All treatments were administered i.p. in a 1ml/kg volume, 1h before tests.
For all the sexual behaviour tests, the males were placed in an observation arena (50-60 cm diameter), starting 5 hours into the dark cycle and observed under red illumination. Three to 4 minutes after placing the male in the arena, a receptive female (ovariectomised, bearing a 7 mm Silastic implant of oestradiol benzoate) was introduced to the arena and the following parameters noted: Mount Latency: time (in seconds) taken between introduction of female and first mount. A maximum time of 15 minutes (900 seconds) was allowed, and the test terminated if no mounts were recorded within that time (Figure 11), Intromission Latency: time (in seconds) taken between introduction of female and first intromission (Figure 12), Number of Mounts: to reach ejaculation. When ejaculation was not reached, the number of mounts was not analyzed, Number of Intromissions: to reach ejaculation. When ejaculation was not reached, the number of intromissions was not analyzed (Figure 13 is number of mounts + intromissions), Ejaculation Latency: time (in seconds) taken from first intromission to ejaculation. A maximum time of 30 minutes (1800 seconds) was given, and the test terminated if ejaculation was not achieved in that time (Figure 14), and Refractory Period: time (in seconds) taken from ejaculation to the first mount of the next series of sexual activity. In those animals reaching ejaculation the test was terminated at the end of the refractory period, as indicated by the first mount of the next sexual cycle (Figure 15).
A one-way ANOVA followed by Dunnett's t test was used to compare treated vs vehicle groups each day of testing, for all the sexual behaviour parameters.

[1] = tested on: Female New Zealand rabbits; test: Pelvic nerve-stimulated female genital blood flow, anaesthetised rabbit model of sexual arousal; format: in vivo
Procedure: Female New Zealand rabbits (~2.5kg) were pre-medicated with a combination of Medetomidine (Domitor®) 0.5ml/kg i.m., and Ketamine (Vetalar®) 0.25ml/kg i.m. whilst maintaining oxygen intake via a face mask. The rabbits were tracheotomised using a Portex™ uncuffed endotracheal tube 3 ID., connected to ventilator and maintained at a ventilation rate of 30-40 breaths per minute, with an approximate tidal volume of 18-20 ml, and a maximum airway pressure of 10 cm H2O. Anaesthesia was then switched to Isoflurane and ventilation continued with O2 at 21/min. The right marginal ear vein was cannulated using a 23G or 24G catheter, and Lactated Ringer solution perfused at 0.5ml/min. The rabbit was maintained at 3% Isoflurane during invasive surgery, dropping to 2% for maintenance anaesthesia.
The left groin area of the rabbit was shaved and a vertical incision was made approximately 5cm in length along the thigh. The femoral vein and artery were exposed, isolated and then cannulated with a PVC catheter (17G) for the infusion of drugs and compounds. Cannulation was repeated for the femoral artery, inserting the catheter to a depth of 10cm to ensure that the catheter reached the abdominal aorta. This arterial catheter was linked to a Gould system to record blood pressure. Samples for blood gas analysis were also taken via the arterial catheter. Systolic and diastolic pressures were measured, and the mean arterial pressure calculated using the formula (diastolic x2 + systolic) ö3. Heart rate was measured via the pulse oxymeter and Po-ne-mah data acquisition software system (Ponemah Physiology Platform, Gould Instrument Systems Inc). A ventral midline incision was made into the abdominal cavity. The incision was about 5cm in length just above the pubis. The fat and muscle was bluntly dissected away to reveal the hypogastric nerve which runs down the body cavity. It was essential to keep close to the side curve of the pubis wall in order to avoid damaging the femoral vein and artery which lie above the pubis. The sciatic and pelvic nerves lie deeper and were located after further dissection on the dorsal side of the rabbit. Once the sciatic nerve is identified, the pelvic nerve was easily located. The term pelvic nerve is loosely applied; anatomy books on the subject fail to identify the nerves in sufficient detail. However, stimulation of the nerve causes an increase in vaginal and clitoral blood flow, and innervation of the pelvic region. The pelvic nerve was freed away from surrounding tissue and a Harvard bipolar stimulating electrode was placed around the nerve. […] A frequency response curve was determined at the start of each experiment in order to determine the optimum frequency to use as a sub-maximal response, normally 4Hz. […]

COc1ccc(C2(CNC(=O)[C@](C)(Cc3c[nH]c4ccccc34)NC(=O)Nc3ccc([N+](=O)[O-])cc3)CCCCC2)nc1 [Compound (1), (S) 3-(1H-Indol-3-yl)-N-[1-(5-methoxy-pyridin-2-yl)-cyclohexyl-methyl]-2-methyl-2-[3-(4-nitro-phenyl)-ureido]-propionamide]
Ejaculation latency (Sprague Dawley male rats): no effect
Intromission latency (Sprague Dawley male rats): no effect
Mount latency (Sprague Dawley male rats): no effect
Refractory period (Sprague Dawley male rats): no effect
number of mounts and intromissions required to achieve ejaculation (Sprague Dawley male rats): no effect
basal genital blood flow in the absence of PNS ([1]; 15mg/kg sc): no effect
pelvic-nerve stimulated (PNS) increases in genital (vaginal and clitoral) blood flow ([1]; 15mg/kg sc in 50% β-cyclodextrin in saline): potent enhancer
